Earlier results, collected in patent US8772510B2, “PDE10 modulators” (Hoffmann-La Roche Inc., priority 2011, dated 2014).

Biological target: PDE10A (Rattus norvegicus (Rat), UniProt Q9QYJ6)
Details: rats, sub-chronic treatment with PCP; Rodefer et al. 2005

Chain of PDE10A (Q9QYJ6 whole entry): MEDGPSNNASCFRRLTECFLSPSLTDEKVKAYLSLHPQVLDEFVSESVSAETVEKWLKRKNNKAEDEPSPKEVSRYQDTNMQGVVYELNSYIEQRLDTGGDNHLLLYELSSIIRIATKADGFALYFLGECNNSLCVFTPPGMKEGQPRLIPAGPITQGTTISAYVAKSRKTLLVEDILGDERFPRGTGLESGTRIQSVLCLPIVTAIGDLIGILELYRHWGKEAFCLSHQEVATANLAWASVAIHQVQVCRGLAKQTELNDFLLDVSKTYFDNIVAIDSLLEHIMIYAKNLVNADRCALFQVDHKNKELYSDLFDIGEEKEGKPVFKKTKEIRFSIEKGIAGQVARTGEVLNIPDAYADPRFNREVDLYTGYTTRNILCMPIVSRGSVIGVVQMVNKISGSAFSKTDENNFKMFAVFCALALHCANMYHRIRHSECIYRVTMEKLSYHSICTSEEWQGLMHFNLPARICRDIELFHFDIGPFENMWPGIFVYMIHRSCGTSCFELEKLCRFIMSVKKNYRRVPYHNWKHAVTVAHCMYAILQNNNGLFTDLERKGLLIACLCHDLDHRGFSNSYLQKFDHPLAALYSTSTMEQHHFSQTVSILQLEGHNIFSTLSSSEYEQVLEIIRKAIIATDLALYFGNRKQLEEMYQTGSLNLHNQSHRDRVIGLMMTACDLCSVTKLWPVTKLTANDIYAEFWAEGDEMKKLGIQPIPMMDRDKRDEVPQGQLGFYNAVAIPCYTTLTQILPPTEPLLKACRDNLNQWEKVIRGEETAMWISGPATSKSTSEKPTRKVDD

Question: With `COc1ccc(Cc2nccc3cc(OC)c(OC)cc23)cc1OC` [papaverine, Papaverine] as the molecule, how does the “deficits in extra-dimensional shift learning” value read?
Answer: attenuate the deficits in the extra-dimensional shift learning
